Results on 20 compounds are retold here after patent US20250230147A1, “LACTAMS AS CBL-B INHIBITORS” (Genentech, Inc., priority 2021, published 2025).

One test concerns the target Cbl-b (Homo sapiens (Human), UniProt Q13191). In words: Cbl-b LCK Ub TR-FRET assay (Cbl-b Lck HTRF). Type of test: biochemical. An outline of the steps: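 Biotin-Cbl-b preincubated with compound (10-point 3-fold series) 60 min, then His-LCK with 1 mM ATP (2× mixture) added for 90 min at room temperature. Ubiquitination detected by TR-FRET using HA-ubiquitin/UBE2D2 adduct, anti-HA-D2 and streptavidin-Eu; IC50 normalised to no-LCK and DMSO controls.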

A further test has as its target c-Cbl (Homo sapiens (Human), UniProt P22681). In words: C-Cbl LCK Ub TR-FRET assay (c-cbl Lck HTRF). To be noted: for (fold-selectivity): C-cbl Lck HTRF IC50 relative to Cbl-b Lck HTRF IC50. In kind it is biochemical. The method, boiled down:
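Signal is read once the detection mix has stood 20 min at ambient temperature. Curves are anchored by DMSO as maximum and by omission of LCK as minimum.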

Structures can show the parent of a compound that is named as a salt.

Cbl-b, sequence (Q13191 40-426): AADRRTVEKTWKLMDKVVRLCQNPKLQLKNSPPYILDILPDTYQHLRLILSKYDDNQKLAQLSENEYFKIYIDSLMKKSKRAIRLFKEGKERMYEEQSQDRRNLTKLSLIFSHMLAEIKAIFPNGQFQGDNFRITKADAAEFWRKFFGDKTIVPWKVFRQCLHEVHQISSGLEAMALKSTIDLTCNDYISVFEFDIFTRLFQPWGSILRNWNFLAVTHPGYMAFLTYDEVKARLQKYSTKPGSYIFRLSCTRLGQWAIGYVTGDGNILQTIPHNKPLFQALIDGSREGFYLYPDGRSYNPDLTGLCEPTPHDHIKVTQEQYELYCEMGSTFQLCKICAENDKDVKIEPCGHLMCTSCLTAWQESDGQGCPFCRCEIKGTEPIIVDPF
c-Cbl, sequence (P22681 47-435): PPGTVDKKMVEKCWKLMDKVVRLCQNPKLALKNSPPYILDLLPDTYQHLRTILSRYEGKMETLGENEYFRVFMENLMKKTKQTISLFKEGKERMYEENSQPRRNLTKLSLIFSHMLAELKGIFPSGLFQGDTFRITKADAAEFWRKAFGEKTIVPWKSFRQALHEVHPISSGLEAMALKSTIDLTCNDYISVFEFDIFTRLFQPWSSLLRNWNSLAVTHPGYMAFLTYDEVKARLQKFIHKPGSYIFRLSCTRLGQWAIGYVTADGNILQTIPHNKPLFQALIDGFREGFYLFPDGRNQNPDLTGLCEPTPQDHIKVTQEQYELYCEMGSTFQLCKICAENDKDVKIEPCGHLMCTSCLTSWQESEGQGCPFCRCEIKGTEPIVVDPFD

With `CCCc1cc(C2(Cc3nncn3C)CCC2)cc(N2Cc3c(cc(CNC4(C)CCC4)cc3C(F)(F)F)C2=O)n1` [Compound 343, 2-(4-(1-((4-methyl-4H-1,2,4-triazol-3-yl)methyl)cyclobutyl)-6-propylpyridin-2-yl)-6-(((1-methylcyclobutyl)amino)methyl)-4-(trifluoromethyl)isoindolin-1-one], at Cbl-b, it took 13 nM to reach half-maximal inhibition (IC50). In addition, at c-Cbl, 9.5 nM corresponded to half-maximal inhibition (IC50) and the “(fold-selectivity)” value is on record as “(0.74x)”.

For the compound `Cn1cnnc1CC1(c2cccc(N3Cc4c(cc(CNC5(C)CCCC5)cc4C(F)(F)F)C3=O)c2)CC(F)(F)C1` [Compound 344, 2-(3-(3,3-difluoro-1-((4-methyl-4H-1,2,4-triazol-3-yl)methyl)cyclobutyl)phenyl)-6-(((1-methylcyclopentyl)amino)methyl)-4-(trifluoromethyl)isoindolin-1-one formate], the 50% inhibitory concentration (IC50) was found to be 16 nM against Cbl-b and 13 nM against c-Cbl.

For `CCCCc1cc(C2(Cc3nncn3C)CCC2)cc(N2Cc3c(cc(CNC4(C)CCC4)cc3C(F)(F)F)C2=O)n1` [Compound 346, 2-(6-butyl-4-(1-((4-methyl-4H-1,2,4-triazol-3-yl)methyl)cyclobutyl)pyridin-2-yl)-6-(((1-methylcyclobutyl)amino)methyl)-4-(trifluoromethyl)isoindolin-1-one], on Cbl-b, the midpoint of inhibition, the IC50, lay at 11 nM. Moreover, at c-Cbl, the half-maximal inhibitory concentration (IC50) turned out to be 10 nM and the “(fold-selectivity)” value is listed as “(0.92x)”.

`CC(C)CNc1cc(C2(Cc3nncn3C)CCC2)cc(N2Cc3c(cc(CNC4(C)CCC4)cc3C(F)(F)F)C2=O)n1` [Compound 348, 2-(6-(isobutylamino)-4-(1-((4-methyl-4H-1,2,4-triazol-3-yl)methyl)cyclobutyl)pyridin-2-yl)-6-(((1-methylcyclobutyl)amino)methyl)-4-(trifluoromethyl)isoindolin-1-one] came in with an IC50 against Cbl-b of 13 nM. In addition, on c-Cbl, the half-maximal inhibitory concentration (IC50) worked out at 13 nM and the “(fold-selectivity)” value is “(1.0x)”.

As for `Cn1cnnc1CC1(c2cc(-c3ccc4ccccc4c3)nc(N3Cc4c(cc(CNC5(C)CCC5)cc4C(F)(F)F)C3=O)c2)CCC1` [Compound 350, 2-(4-(1-((4-methyl-4H-1,2,4-triazol-3-yl)methyl)cyclobutyl)-6-(naphthalen-2-yl)pyridin-2-yl)-6-(((1-methylcyclobutyl)amino)methyl)-4-(trifluoromethyl)isoindolin-1-one], the IC50 worked out at 28 nM on Cbl-b and 16 nM at c-Cbl. Besides, the “(fold-selectivity)” value on c-Cbl was “(0.57x)”.

Turning to `Cn1cnnc1CC1(c2cc(Cl)nc(N3Cc4c(cc(CNC5(C)CCC5)cc4C(F)(F)F)C3=O)c2)CCC1` [Compound 351, 2-(6-chloro-4-(1-((4-methyl-4H-1,2,4-triazol-3-yl)methyl)cyclobutyl)pyridin-2-yl)-6-(((1-methylcyclobutyl)amino)methyl)-4-(trifluoromethyl)isoindolin-1-one formate], the half-inhibitory concentration (IC50) on Cbl-b amounted to 33 nM; on c-Cbl, 19 nM.

For the compound `Cn1cnnc1CC1(c2cccc(N3Cc4c(cc(CNCC5(C)CC5)cc4C(F)(F)F)C3=O)c2)CC(F)(F)C1` [Compound 352, 2-(3-(3,3-difluoro-1-((4-methy-4H-1,2,4-triazol-3-yl)methyl)cyclobutyl)phenyl)-6-((((1-methylcyclopropyl)methyl)amino)methyl)-4-(trifluoromethyl)isoindolin-1-one formate], the figures for the IC50 against Cbl-b and at c-Cbl were 12 nM and 6.7 nM, respectively.

On to `CC1CC(C)(NCc2cc3c(c(C(F)(F)F)c2)CN(c2cccc(C4(Cc5nncn5C)CC(F)(F)C4)c2)C3=O)C1` (stereo not shown) [Compound 353, 2-(3-(3,3-difluoro-1-((4-methyl-4H-1,2,4-triazol-3-yl)methyl)cyclobutyl)phenyl)-6-(((1,3-dimethylcyclobutyl)amino)methyl)-4-(trifluoromethyl)isoindolin-1-one formate], for which the results for the concentration for half-maximal inhibition (IC50) at Cbl-b and at c-Cbl were 12 nM and 6.6 nM, respectively.

For `Cn1cnnc1CC1(c2cccc(N3Cc4c(cc(CNC56CC(C)(C5)C6)cc4C(F)(F)F)C3=O)c2)CC(F)(F)C1` [Compound 354, 2-(3-(3,3-difluoro-1-((4-methyl-4H-1,2,4-triazol-3-yl)methyl)cyclobutyl)phenyl)-6-(((3-methylbicyclo[1.1.1]pentan-1-yl)amino)methyl)-4-(trifluoromethyl)isoindolin-1-one formate], the 50% inhibitory concentration (IC50) against Cbl-b stood at 13 nM; against c-Cbl, 7 nM.

`Cn1cnnc1CC1(c2cccc(N3Cc4c(cc(CNC5(C)CCC5(C)C)cc4C(F)(F)F)C3=O)c2)CC(F)(F)C1` (stereo not shown) [Compound 355, 2-(3-(3,3-difluoro-1-((4-methyl-4H-1,2,4-triazol-3-yl)methyl)cyclobutyl)phenyl)-4-(trifluoromethyl)-6-(((1,2,2-trimethylcyclobutyl)amino)methyl) isoindin-1-one formate]: the IC50 amounted to 14 nM against Cbl-b and 9.1 nM on c-Cbl.

Consider `Cn1cnnc1CC1(c2cccc(N3Cc4c(cc(CNC56CC(C5)C6)cc4C(F)(F)F)C3=O)c2)CC(F)(F)C1` [Compound 356, 6-((bicyclo[1.1.1]pentan-1-ylamino)methyl)-2-(3-(3,3-difluoro-1-((4-methyl-4H-1,2,4-triazol-3-yl)methyl)cyclobutyl)phenyl)-4-(trifluoromethyl)isoindolin-1-one], for which the half-inhibitory concentration (IC50) against Cbl-b was 12 nM. Besides, at c-Cbl, the half-inhibitory concentration (IC50) came out at 10 nM and the “(fold-selectivity)” value is recorded as “(0.81x)”.

Take `Cn1cnnc1CC1(c2cccc(N3Cc4c(cc(CNCC5COC(C)(C)O5)cc4C(F)(F)F)C3=O)c2)CC(F)(F)C1` (stereo not shown) [Compound 357, 2-(3-(3,3-difluoro-1-((4-methyl-4H-1,2,4-triazol-3-yl)methyl)cyclobutyl)phenyl)-6-((((2,2-dimethyl-1,3-dioxolan-4-yl)methyl)amino)methyl)-4-(trifluoromethyl)isoindolin-1-one formate]: the half-maximal inhibitory concentration (IC50) at Cbl-b stood at 38 nM; against c-Cbl, 41 nM.

With `Cn1cnnc1CC1(c2cccc(N3Cc4c(cc(CNCC5CCOC5)cc4C(F)(F)F)C3=O)c2)CC(F)(F)C1` (stereo not shown) [Compound 358, 2-(3-(3,3-difluoro-1-((4-methyl-4H-1,2,4-triazol-3-yl)methyl)cyclobutyl)phenyl)-6-((((tetrahydrofuran-3-yl)methyl)amino)methyl)-4-(trifluoromethyl)isoindolin-1-one formate], the IC50 came out at 16 nM at Cbl-b and 15 nM against c-Cbl.

Take `CCOc1cc(C2(Cc3nncn3C)CCC2)cc(N2Cc3c(cc(CNC4(C)CCC4)cc3C(F)(F)F)C2=O)n1` [Compound 359, 2-(6-ethoxy-4-(1-((4-methyl-4H-1,2,4-triazol-3-yl)methyl)cyclobutyl)pyridin-2-yl)-6-(((1-methylcyclobutyl)amino)methyl)-4-(trifluoromethyl)isoindolin-1-one]: on Cbl-b, the half-inhibitory concentration (IC50) was 11 nM. For the same compound, at c-Cbl, 5.3 nM corresponded to half-maximal inhibition (IC50) and the “(fold-selectivity)” value was “(0.71x)”.

On Cbl-b, `Cn1cnnc1CC1(c2cc(OCc3ccccc3)nc(N3Cc4c(cc(CNC5(C)CCC5)cc4C(F)(F)F)C3=O)c2)CCC1` [Compound 360, 2-(6-(benzyloxy)-4-(1-((4-methyl-4H-1,2,4-triazol-3-yl)methyl)cyclobutyl)pyridin-2-yl)-6-(((1-methylcyclobutyl)amino)methyl)-4-(trifluoromethyl)isoindolin-1-one] returned an IC50 of 20 nM. Moreover, at c-Cbl, 17 nM corresponded to half-maximal inhibition (IC50) and the “(fold-selectivity)” value was “(0.86x)”.

On to `CCc1cc(C2(Cc3nncn3C)CCC2)cc(N2Cc3c(cc(CNC4(C)CCC4)cc3C(F)(F)F)C2=O)n1` [Compound 361, 2-(6-ethyl-4-(1-((4-methyl-4H-1,2,4-triazol-3-yl)methyl)cyclobutyl)pyridin-2-yl)-6-(((1-methylcyclobutyl)amino)methyl)-4-(trifluoromethyl)isoindolin-1-one], for which the IC50 against Cbl-b stood at 13 nM. Further, at c-Cbl, the IC50 was determined as 9.6 nM and the “(fold-selectivity)” value is reported as “(0.76x)”.

On Cbl-b, `Cn1cnnc1CC1(c2cccc(N3Cc4c(cc(CNCC(C)(C)C)cc4C(F)(F)F)C3=O)c2)CC(F)(F)C1` [Compound 363, 2-(3-(3,3-difluoro-1-((4-methyl-4H-1,2,4-triazol-3-yl)methyl)cyclobutyl)phenyl)-6-((neopentylamino)methyl)-4-(trifluoromethyl)isoindolin-1-one] had an IC50 of 13 nM. Further, at c-Cbl, the concentration for half-maximal inhibition (IC50) was found to be 9.6 nM and the “(fold-selectivity)” value is given as “(0.75x)”.

With `Cn1cnnc1CC1(c2cccc(N3Cc4c(cc(CNC5CCCC5)cc4C(F)(F)F)C3=O)c2)CC(F)(F)C1` [Compound 364, 6-((cyclopentylamino)methyl)-2-(3-(3,3-difluoro-1-((4-methyl-4H-1,2,4-triazol-3-yl)methyl)cyclobutyl)phenyl)-4-(trifluoromethyl)isoindolin-1-one], on Cbl-b, inhibition was half-maximal at 15 nM (IC50). Besides, at c-Cbl, the half-inhibitory concentration (IC50) was 9.7 nM and the “(fold-selectivity)” value was “(0.63x)”.

Take `COc1cc(C2(Cc3nncn3C)CCC2)cc(N2Cc3c(cc(CN4CCN(C)C[C@@H]4C(C)C)cc3C(F)(F)F)C2=O)n1` [Compound 365, (S)-6-((2-isopropyl-4-methylpiperazin-1-yl)methyl)-2-(6-methoxy-4-(1-((4-methyl-4H-1,2,4-triazol-3-yl)methyl)cyclobutyl)pyridin-2-yl)-4-(trifluoromethyl)isoindolin-1-one]: the figures for the IC50 on Cbl-b and against c-Cbl were 12 nM and 6.7 nM, respectively. Besides, the “(fold-selectivity)” value at c-Cbl is “(0.57x)”.

`Cn1cnnc1CC1(c2cccc(N3Cc4c(cc(CNC5CC6(COC6)C5)cc4C(F)(F)F)C3=O)c2)CC(F)(F)C1` [Compound 366, 6-((2-oxaspiro[3.3]heptan-6-ylamino)methyl)-2-(3-(3,3-difluoro-1-((4-methyl-4H-1,2,4-triazol-3-yl)methyl)cyclobutyl)phenyl)-4-(trifluoromethyl)isoindolin-1-one] registered an IC50 against Cbl-b of 26 nM. Besides, on c-Cbl, half-maximal inhibition (IC50) required 27 nM and the “(fold-selectivity)” value is recorded as “(1.0x)”.
